Assay results as given in ChEMBL document CHEMBL4017484, “Nitric Oxide Donor-Based Cancer Therapy: Advances and Prospects” (J Med Chem, 2017).

What was measured:
HT-29 = experiment: Antitumor activity against human HT-29 cells xenografted in athymic nu/nu mouse assessed as reduction in tumor growth at 100 mg/kg administered every day for 18 days relative to vehicle-treated control; type: functional; details: HT-29, 432 h, read-out: TGI
HL-60 [1] = experiment: Antiproliferative activity against human HL60 cells assessed as decrease in cell viability measured after 3 days by MTT assay; type: functional, cell-based; details: HL-60, 72 h
HL-60 [2] = experiment: Antitumor activity against human HL60 cells xenografted in NOD-SCID mouse assessed as reduction in tumor growth at 4 umol/kg, iv measured after 15 to 20 days; type: functional; details: HL-60, iv, read-out: TGI
[3] = Acute toxicity in iv dosed BALB/c nude mouse assessed as mortality after 14 days; type: organism-based; details: in vivo
[4] = substrate: CC(=O)N[C@H]1[C@@H]([C@H](O)[C@H](O)CO)O[C@@](O/N=[N+](\[O-])N2CCCC2)(C(=O)O)C[C@@H]1O; experiment: Activity at Clostridium perfringens neuraminidase assessed as release of nitric oxide by UV-vis spectrophotometer

With O=C(CCCO[N+](=O)[O-])Oc1ccccc1C(=O)Oc1ccc(-c2cc(=S)ss2)cc1 the inhibition in vivo at 100 mg/kg (HT-29) was 85%.

For CCOC(=O)N1CCN(/[N+]([O-])=N/Oc2ccc([N+](=O)[O-])cc2[N+](=O)[O-])CC1, the IC50 (HL-60 [1]) was 200 to 500 nM and the inhibition in vivo at 4 µmol/kg (HL-60 [2]) was 50%.

CC1(C)CC[C@]2(C(=O)O[C@H]3O[C@@H](CO)[C@H](O)[C@@H](O)[C@@H]3O)CC[C@]3(C)C(=CC[C@@H]4[C@@]5(C)CC[C@H](OC(=O)CCC(=O)OC6CCN(/[N+]([O-])=N/O[C@@H]7O[C@H](CO)[C@H](O)[C@H](O)[C@H]7O)CC6)C(C)(C)[C@@H]5CC[C@]43C)[C@@H]2C1 gave an LD50 at 336 h [3] of 173 mg/kg.

B1: Sialidase (Clostridium perfringens), P10481 (protein)
chain: MCNKNNTFEKNLDISHKPEPLILFNKDNNIWNSKYFRIPNIQLLNDGTILTFSDIRYNGPDDHAYIDIASARSTDFGKTWSYNIAMKNNRIDSTYSRVMDSTTVITNTGRIILIAGSWNTNGNWAMTTSTRRSDWSVQMIYSDDNGLTWSNKIDLTKDSSKVKNQPSNTIGWLGGVGSGIVMDDGTIVMPAQISLRENNENNYYSLIIYSKDNGETWTMGNKVPNSNTSENMVIELDGALIMSTRYDYSGYRAAYISHDLGTTWEIYEPLNGKILTGKGSGCQGSFIKATTSNGHRIGLISAPKNTKGEYIRDNIAVYMIDFDDLSKGVQEICIPYPEDGNKLGGGYSCLSFKNNHLGIVYEANGNIEYQDLTPYYSLINKQ
In the case of B1, the Km [4] is reported as 140 µM.
